According to ChEMBL document CHEMBL1201862, “PubChem BioAssay data set” (2004):
Activity calls are given as the source filed them.

What was measured:
[1] = target: Peroxisome proliferator-activated receptor gamma/Nuclear receptor coactivator 1 (Homo sapiens, UniProt P37231); format: functional;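 note: agonist potency as compounds enhance coactivator SRC-1 recruitment to PPARgamma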
[2] = target: Peroxisome proliferator-activated receptor gamma/Nuclear receptor coactivator 3 (Homo sapiens, UniProt P37231); format: functional;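 note: agonist potency for raising coactivator recruitment to the receptor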
Sequence of Peroxisome proliferator-activated receptor gamma/Nuclear receptor coactivator 3 (P37231 whole entry): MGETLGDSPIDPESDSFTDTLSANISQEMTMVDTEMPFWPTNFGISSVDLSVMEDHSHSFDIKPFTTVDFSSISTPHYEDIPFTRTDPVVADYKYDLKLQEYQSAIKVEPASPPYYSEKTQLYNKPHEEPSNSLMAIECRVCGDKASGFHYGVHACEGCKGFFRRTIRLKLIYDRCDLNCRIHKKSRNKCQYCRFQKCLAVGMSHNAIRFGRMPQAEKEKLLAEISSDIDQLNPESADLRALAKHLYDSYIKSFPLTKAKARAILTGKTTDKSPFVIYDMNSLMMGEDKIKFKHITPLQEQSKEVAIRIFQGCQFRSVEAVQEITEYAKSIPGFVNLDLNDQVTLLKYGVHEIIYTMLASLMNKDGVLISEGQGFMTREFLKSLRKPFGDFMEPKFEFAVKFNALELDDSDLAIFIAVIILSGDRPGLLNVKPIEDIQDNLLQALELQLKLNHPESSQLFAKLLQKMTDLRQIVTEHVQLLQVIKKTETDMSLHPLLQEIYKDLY
Sequence of Peroxisome proliferator-activated receptor gamma/Nuclear receptor coactivator 3 (Q9Y6Q9 whole entry, further chain): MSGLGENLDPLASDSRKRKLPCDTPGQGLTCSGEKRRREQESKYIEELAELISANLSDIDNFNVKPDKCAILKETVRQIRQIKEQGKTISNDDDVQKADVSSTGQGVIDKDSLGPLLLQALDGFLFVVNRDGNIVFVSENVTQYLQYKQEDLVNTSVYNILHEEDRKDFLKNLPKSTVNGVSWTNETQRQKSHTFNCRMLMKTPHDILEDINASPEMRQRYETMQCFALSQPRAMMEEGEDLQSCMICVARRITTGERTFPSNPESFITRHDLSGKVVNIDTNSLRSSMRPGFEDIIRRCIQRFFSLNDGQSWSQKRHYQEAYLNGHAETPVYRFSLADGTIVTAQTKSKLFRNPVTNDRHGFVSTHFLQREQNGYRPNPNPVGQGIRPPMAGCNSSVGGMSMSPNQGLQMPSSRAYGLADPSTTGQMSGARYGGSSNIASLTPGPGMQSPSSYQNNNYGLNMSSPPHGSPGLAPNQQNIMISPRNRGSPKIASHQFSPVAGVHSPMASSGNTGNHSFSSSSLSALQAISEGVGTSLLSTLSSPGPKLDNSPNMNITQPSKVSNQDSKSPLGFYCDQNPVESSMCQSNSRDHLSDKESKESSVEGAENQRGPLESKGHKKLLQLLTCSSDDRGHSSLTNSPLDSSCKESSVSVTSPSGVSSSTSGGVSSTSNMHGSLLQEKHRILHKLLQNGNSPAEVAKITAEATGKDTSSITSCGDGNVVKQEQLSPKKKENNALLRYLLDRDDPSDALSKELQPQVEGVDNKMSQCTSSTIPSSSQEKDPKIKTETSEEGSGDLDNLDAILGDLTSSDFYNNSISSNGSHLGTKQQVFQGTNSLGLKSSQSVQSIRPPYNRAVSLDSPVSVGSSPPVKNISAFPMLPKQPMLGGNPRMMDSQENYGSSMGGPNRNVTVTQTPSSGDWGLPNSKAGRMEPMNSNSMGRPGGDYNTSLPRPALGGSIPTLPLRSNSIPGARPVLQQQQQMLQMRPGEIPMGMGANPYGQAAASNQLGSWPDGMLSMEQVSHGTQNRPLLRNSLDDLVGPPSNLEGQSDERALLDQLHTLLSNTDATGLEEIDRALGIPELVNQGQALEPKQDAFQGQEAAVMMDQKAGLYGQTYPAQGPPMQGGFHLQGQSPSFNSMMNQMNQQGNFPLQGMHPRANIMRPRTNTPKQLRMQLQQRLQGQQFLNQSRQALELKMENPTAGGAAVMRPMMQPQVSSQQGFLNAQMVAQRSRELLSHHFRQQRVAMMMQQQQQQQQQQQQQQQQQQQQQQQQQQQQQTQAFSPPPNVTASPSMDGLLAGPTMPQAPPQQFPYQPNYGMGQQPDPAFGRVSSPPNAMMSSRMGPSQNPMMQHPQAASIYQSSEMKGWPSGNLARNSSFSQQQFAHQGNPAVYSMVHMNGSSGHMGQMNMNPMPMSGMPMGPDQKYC

[3] = target: Peroxisome proliferator-activated receptor gamma/Nuclear receptor coactivator 2 (Homo sapiens, UniProt P37231); format: functional;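 note: agonist potency for raising coactivator recruitment to the receptor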
Sequence of Peroxisome proliferator-activated receptor gamma/Nuclear receptor coactivator 2 (P37231 whole entry): as the sequence (P37231 whole entry) above
Sequence of Peroxisome proliferator-activated receptor gamma/Nuclear receptor coactivator 2 (Q15596 whole entry, further chain): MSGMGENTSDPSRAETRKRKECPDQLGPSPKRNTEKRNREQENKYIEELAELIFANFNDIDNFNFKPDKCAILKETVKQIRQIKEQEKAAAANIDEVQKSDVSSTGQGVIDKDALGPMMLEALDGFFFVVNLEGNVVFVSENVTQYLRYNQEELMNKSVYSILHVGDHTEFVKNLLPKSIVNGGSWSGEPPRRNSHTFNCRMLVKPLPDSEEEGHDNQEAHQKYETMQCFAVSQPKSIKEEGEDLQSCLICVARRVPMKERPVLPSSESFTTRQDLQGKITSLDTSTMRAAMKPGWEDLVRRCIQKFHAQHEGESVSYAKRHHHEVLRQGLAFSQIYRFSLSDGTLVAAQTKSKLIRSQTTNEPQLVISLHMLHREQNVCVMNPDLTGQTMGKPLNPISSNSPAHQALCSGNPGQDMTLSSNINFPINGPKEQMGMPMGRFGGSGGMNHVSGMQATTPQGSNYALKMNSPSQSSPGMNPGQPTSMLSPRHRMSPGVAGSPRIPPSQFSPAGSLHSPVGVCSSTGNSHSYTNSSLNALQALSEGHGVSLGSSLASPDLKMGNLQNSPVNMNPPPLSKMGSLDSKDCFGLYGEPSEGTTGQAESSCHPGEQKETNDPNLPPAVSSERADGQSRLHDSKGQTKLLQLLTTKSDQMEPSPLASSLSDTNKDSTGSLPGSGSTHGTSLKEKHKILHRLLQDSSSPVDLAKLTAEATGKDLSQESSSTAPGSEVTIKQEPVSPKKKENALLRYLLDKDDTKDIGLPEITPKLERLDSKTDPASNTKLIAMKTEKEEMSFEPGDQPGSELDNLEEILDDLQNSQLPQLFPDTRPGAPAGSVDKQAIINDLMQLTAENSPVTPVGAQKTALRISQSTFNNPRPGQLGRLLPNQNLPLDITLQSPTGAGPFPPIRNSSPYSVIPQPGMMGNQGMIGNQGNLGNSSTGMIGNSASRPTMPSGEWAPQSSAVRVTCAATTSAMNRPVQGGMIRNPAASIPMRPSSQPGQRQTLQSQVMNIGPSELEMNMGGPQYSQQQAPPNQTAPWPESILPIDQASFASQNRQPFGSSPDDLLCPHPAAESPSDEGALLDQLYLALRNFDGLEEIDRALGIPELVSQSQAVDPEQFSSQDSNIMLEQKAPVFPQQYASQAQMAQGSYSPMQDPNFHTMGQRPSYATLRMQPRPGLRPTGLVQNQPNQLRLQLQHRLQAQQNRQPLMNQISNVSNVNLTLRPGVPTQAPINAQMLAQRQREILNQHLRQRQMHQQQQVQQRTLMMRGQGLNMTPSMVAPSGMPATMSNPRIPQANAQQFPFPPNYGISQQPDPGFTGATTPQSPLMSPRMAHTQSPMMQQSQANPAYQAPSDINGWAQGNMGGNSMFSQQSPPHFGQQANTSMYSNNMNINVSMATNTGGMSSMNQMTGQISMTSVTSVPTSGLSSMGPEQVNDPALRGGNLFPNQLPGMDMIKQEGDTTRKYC

[4] = Luminescence-based cell-based high throughput dose response assay to identify activators of the DAF-12 from the parasite S. stercoralis (ssDAF-12).; format: functional
[5] = target: T1, Oxysterols receptor LXR-beta (Homo sapiens, UniProt P55055); experiment: LXR agonists, Gal4 luciferase reporter, dose response, counter-screen for ssDAF-12 agonist project, cell-based, luminescence, HEK293, S. stercoralis campaign (AID 720737); format: functional; conditions: read-out: IC50 (the source's name)
T1 sequence (P55055 whole entry): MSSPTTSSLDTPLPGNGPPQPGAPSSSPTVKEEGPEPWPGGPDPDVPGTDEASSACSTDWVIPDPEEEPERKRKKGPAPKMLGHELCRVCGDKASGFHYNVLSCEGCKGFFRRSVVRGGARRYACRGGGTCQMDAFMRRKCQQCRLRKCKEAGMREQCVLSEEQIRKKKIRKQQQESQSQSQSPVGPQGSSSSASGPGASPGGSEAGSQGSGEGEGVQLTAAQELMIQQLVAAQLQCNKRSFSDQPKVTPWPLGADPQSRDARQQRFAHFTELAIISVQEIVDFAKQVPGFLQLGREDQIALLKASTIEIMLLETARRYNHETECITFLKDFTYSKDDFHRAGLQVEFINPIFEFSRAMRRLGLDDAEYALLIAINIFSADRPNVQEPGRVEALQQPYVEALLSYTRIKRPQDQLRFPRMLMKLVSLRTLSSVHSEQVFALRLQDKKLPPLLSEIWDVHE

[6] = Luminescence Cell-Based Dose Confirmation HTS to Identify Inhibitors of Polyadenylation.; format: functional
[7] = target: T2, Lytic switch protein BZLF1 (Epstein-Barr virus (strain B95-8) (HHV-4) (Human herpesvirus 4), UniProt P03206); experiment: inhibition of BZLF1 ZTA DNA binding – biochemical, fluorescence polarization, Epstein-Barr virus, 1536-well, counter-screen for EBNA-1 inhibitor project, dose response (AID 2377); parameters: species or system human gammaherpesvirus 4;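 note: fluorescence polarization of Cy5-labelled ZRE DNA probe bound by purified Zta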
T2 sequence (P03206 whole entry): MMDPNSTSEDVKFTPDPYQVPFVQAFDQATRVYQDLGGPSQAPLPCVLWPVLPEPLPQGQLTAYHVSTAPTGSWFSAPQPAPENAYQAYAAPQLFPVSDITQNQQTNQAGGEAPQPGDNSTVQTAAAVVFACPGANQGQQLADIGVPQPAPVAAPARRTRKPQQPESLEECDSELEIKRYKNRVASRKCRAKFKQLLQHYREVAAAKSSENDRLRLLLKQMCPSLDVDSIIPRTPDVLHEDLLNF

[8] = target: T3, Epstein-Barr nuclear antigen 1 (Epstein-Barr virus (strain B95-8) (HHV-4) (Human herpesvirus 4), UniProt P03211); experiment: inhibition of EBV nuclear antigen 1 DNA binding – biochemical, fluorescence polarization, 1536-well, dose response (AID 2381); parameters: species or system human gammaherpesvirus 4;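 note: fluorescence polarization of a Cy5 DNA probe bound by EBNA-1 protein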
T3 sequence (P03211 whole entry): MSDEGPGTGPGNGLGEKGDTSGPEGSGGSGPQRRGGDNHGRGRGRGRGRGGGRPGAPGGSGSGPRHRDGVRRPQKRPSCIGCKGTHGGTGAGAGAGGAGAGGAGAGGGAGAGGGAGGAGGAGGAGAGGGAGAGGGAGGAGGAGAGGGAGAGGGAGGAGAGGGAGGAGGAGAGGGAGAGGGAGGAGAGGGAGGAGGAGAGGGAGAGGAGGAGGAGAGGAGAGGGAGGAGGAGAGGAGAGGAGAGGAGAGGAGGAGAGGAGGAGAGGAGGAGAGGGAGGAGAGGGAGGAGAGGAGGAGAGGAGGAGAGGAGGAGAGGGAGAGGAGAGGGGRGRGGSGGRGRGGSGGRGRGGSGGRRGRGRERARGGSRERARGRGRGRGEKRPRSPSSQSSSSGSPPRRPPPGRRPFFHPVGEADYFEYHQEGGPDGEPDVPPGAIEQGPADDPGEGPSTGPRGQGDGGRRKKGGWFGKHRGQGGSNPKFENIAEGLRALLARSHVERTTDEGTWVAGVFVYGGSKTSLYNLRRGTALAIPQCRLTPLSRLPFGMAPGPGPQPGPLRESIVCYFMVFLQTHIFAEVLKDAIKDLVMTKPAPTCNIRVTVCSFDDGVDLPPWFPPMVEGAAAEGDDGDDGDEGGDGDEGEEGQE

[9] = target: T4, Luciferin 4-monooxygenase (Photinus pyralis, UniProt P08659); experiment: inhibition of purified Photinus pyralis luciferase – biochemical, luminescence, dose response (AID 1891)
T4 sequence (P08659 whole entry): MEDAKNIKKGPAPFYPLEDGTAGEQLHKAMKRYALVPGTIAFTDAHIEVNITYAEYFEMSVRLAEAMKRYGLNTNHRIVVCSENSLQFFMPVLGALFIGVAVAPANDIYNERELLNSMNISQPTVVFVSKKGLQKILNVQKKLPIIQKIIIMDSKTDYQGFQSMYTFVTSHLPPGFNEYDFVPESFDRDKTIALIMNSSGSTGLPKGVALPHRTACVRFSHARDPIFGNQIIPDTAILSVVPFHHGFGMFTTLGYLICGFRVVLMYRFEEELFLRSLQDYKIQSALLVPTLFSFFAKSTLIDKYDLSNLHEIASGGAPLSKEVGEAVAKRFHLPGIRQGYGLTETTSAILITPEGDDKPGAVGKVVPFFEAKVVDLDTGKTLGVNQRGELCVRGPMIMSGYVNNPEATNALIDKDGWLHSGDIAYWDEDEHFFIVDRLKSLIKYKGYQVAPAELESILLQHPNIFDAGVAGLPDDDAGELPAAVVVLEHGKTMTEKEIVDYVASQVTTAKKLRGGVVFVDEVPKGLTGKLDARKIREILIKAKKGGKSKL

[10] = Luminescence Cell-Based Dose Confirmation HTS to Identify Inhibitors of Platelet Dense Granule Release. [Related pubchem assays: 1663 (Primary HTS), 1678 (Summary of Project)]; format: functional
[11] = cells
[12] = target: T1, Oxysterols receptor LXR-beta; format: functional, cell-based
[13] = target: T4, Luciferin 4-monooxygenase; experiment: Counter Screen for Luciferase-based Assay Positives. [Related pubchem assays: 620, 618, 411 ]
[14] = test system: HT-1080; experiment: HT1080 cell viability loss – fluorescence readout (AID 620); format: functional, cell-based; conditions: Homo sapiens
[15] = microbe, parasite or virus in culture; format: functional; conditions: Mycobacterium tuberculosis
[16] = target: Disintegrin and metalloproteinase domain-containing protein 17 (Homo sapiens, UniProt P78536); experiment: inhibition of ADAM17 substrate cleavage – biochemical, quenched FRET substrate, counter-screen for ADAM10 exosite inhibitor project, dose response (AID 743253)
[17] = potency of ADAM10 substrate cleavage blockers – biochemical, QFRET, dose response (AID 743254);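 note: ADAM10 enzyme with the DM2 quenched FRET peptide as substrate; EDANS fluorescence gain as the protease cuts the substrate; inhibitor potency against ADAM10 proteolytic activity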
[18] = test system: BJ; experiment: BJ-TERT fibroblast viability loss – cell-based, RAS-independent, luminescence, dose response (AID 1933); format: functional; conditions: Homo sapiens
[19] = test system: BJ; experiment: BJ-TERT-LT-ST fibroblast viability loss – cell-based, RAS-independent, luminescence, dose response (AID 1935); format: functional; conditions: Homo sapiens;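 note: BJ fibroblasts immortalized with TERT plus LT and ST oncogenes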
[20] = test system: BJ; experiment: cells; format: functional, cell-based; conditions: Homo sapiens
[21] = DRD fibroblast viability loss – cell-based, non-viral oncogenic, luminescence, dose response (AID 1934); format: functional; conditions: Homo sapiens

For `COc1ccc(NCCNc2ccc(OC)cc2)cc1`, the EC50 [1] was > 79.4 µM (not active), the EC50 [2] was > 79.4 µM (not active) and the EC50 [3] was > 79.4 µM (not active).
In the case of `Clc1ccccc1Cn1nnc(-c2ccccc2)n1`, the IC50 [4] is reported as > 67.5 µM (inactive) and the EC50 [5] is reported as > 67.5 µM (inactive).
For `O=C(CSc1nc2cccnc2n1Cc1ccccc1)NCc1ccco1`, the EC50 [1] was > 79.4 µM (not active), the EC50 [2] was > 79.4 µM (not active) and the EC50 [3] was > 79.4 µM (not active).
With `CC(=O)c1c(COC(=O)c2ccc(Cl)cc2)nc2ccccc2[n+]1[O-]` the EC50 [6] was > 120 µM (not active).
For `Cc1cccc(N(C(=O)c2snc(C(N)=O)c2N)C(C(=O)NCC2CCCO2)c2ccc(N(C)C)cc2)c1C` (configuration not stated), the IC50 [7] was > 111 µM (not active) and the IC50 [8] was 2.73 µM (active).
With `COc1ccc(C(=O)/C=C/Nc2cc(C)ccn2)cc1` the EC50 [9] was 1.69 µM (active), the EC50 [10] was 7.6 µM (active) and the EC50 [11] was > 67.6 µM (inactive). The EC50 [12] was > 67.6 µM (inactive).
In the case of `CCOC(=O)c1s/c(=N\C(=O)c2ccc(Cl)s2)n(C)c1C`, the EC50 [11] is reported as > 67.5 µM (inactive) and the EC50 [12] is reported as > 67.5 µM (inactive).
For `O/C(=C\C=N\c1cccc(O)c1)c1ccccc1`, the EC50 [11] was > 67.6 µM (inactive), the EC50 [13] was 1.03 µM (active) and the EC50 [12] was > 67.6 µM (inactive). For the same compound, the EC50 [14] was > 50 µM (not active).
With `Fc1ccccc1-c1ccc(/C=N/Nc2nc3ccccc3[nH]2)o1` the IC50 [4] was > 67.5 µM (inactive) and the EC50 [5] was > 67.5 µM (inactive).
In the case of `O=C(NC(C(=O)N/N=C/c1cccc2ccccc12)c1nnc(O)c2ccccc12)c1ccccc1` (configuration not stated), the CC50 [15] is reported as > 40 µM (active), the IC50 [16] is reported as > 69.5 µM (inactive) and the IC50 [17] is reported as > 69.5 µM (inactive).
With `COc1ccc(-c2nc3ccccc3[nH]2)cc1` the EC50 [18] was 8.49 µM (active), the EC50 [13] was 11 µM (active) and the EC50 [14] was 20.3 µM (active). For the same compound, the EC50 [19] was 22.7 µM (active), the EC50 [20] was 19.1 µM (active) and the EC50 [21] was 9.35 µM (active).
